Test results: US12344820B2, “Laundry detergent and fabric care compositions with sulfonamides for odor removal from fabrics” (Rem Brands, Inc., priority 2019, dated 2025)

Test: Soaking of sweaty polyester workout shirts in BENZ solution, subjective scent rating by a group of people
Details: for Post Dry average scent rating: 30 min soak, after shirt dried; for Post Wet average scent rating: after 30 minutes of soaking; for Pre Soak average scent rating: shirt smelled before soaking (baseline)
From the text: Polyester workout shirts were worn without deodorant during a one-hour workout to induce copious amounts of sweat. The shirts were kept in sealed plastic bags for several days, mimicking normal wash schedule delay. The shirts were then soaked in buckets containing various amounts of N-chloro-4-carboxybenzenesulfonamide (BENZ). The bucket contained either zero (control), 0.02 wt %, 0.04 wt %, or 0.15 wt % of the BENZ (e.g. 0.02 grams BENZ per 100 grams of water, w/w). No agitation, spinning, or moving of any kind occurred during the soaking. After 30 minutes of soaking, the shirts were wrung out and laid to dry.
The shirts were smelled before soaking (Pre Soak), after the 30 minutes of soaking (Post Wet), and after they were dried (Post Dry) by a group of people who subjectively rated the scent of the shirt on a scale of 0 (no smell) to 10 (extremely smelly).

[1] = 0.02 wt % BENZ in water, scale 0 to 10
[2] = 0.04 wt % BENZ in water, scale 0 to 10
[3] = 0.15 wt % BENZ in water, scale 0 to 10

## O=C(O)c1ccc(S(=O)(=O)NCl)cc1 [BENZ, N-chloro-4-carboxybenzenesulfonamide]
[1]
  Post Dry average scent rating: 5
  Post Wet average scent rating: 5
  Water average scent rating: 7
0.02 wt % BENZ in water, scale 0 (no smell) to 10 (extremely smelly)
  Pre Soak average scent rating: 10
0.02 wt % concentration
  effect on malodor: reduced the intensity of the malodor significantly
[2]
  Post Dry average scent rating: 4
  Post Wet average scent rating: 5
  Water average scent rating: 5
  Pre Soak average scent rating: 10
0.04 wt % concentration
  effect on malodor: reduced the intensity of the malodor significantly
[3]
  Post Dry average scent rating: 0
  Post Wet average scent rating: 1
  Water average scent rating: 2
  Pre Soak average scent rating: 10
0.15 wt % concentration, once the shirt was dry
  effect on malodor: eradicated the malodor completely
